Source: patent US20260022143A1, “Cyclic Peptide Inhibitors of IL-23” (JANSSEN PHARMACEUTICA NV, priority 2022, published 2026)
pIC50: −log10 of the molar value. Positions of bridges follow the written chain, without caps; N, C: chain ends. Non-standard residues stand in square brackets, D forms with d. Residues, ends and D or L forms follow the SMILES beside them. Groups on a side chain read outwards from the residue. Trp(7-Me) = Cc1cccc2c(C[C@H](N)C(=O)O)c[nH]c12; 2Nal = N[C@@H](Cc1ccc2ccccc2c1)C(=O)O; AEF = NCCOc1ccc(C[C@H](N)C(=O)O)cc1; dNMeY = CN[C@H](Cc1ccc(O)cc1)C(=O)O; PEG6 = NCCOCCOCCOCCOCCOCCOCCC(=O)O; 3Pal = N[C@@H](Cc1cccnc1)C(=O)O; Cit = NC(=O)NCCC[C@H](N)C(=O)O; αMeL = CC(C)C[C@](C)(N)C(=O)O; Pen = CC(C)(S)[C@H](N)C(=O)O; Thp = NC1(C(=O)O)CCOCC1; Sar = CNCC(=O)O

How the values were obtained:
[1] = Exposed Polar Surface Area (EPSA); assay type: physicochemical; conditions: SFC on Chirex 3014 column; sample 1 mM DMSO stock; read-out: EPSA
Method in brief: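 Chirex 3014 column, 35 °C, 4 mL/min; CO2/MeOH + 20 mM NH4 formate, 5→60% modifier at 20%/min. UV/MS detection. EPSA (Å^2) from retention time vs 8-standard calibration line; duplicates; 1 mM DMSO stock injected undiluted.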

IL-23R = molecular target: T1, IL-23R (Homo sapiens, UniProt Q5VWK5); assay: IL23R Reporter Assay; assay type: cell-based; conditions: HEK293 cells containing IL-23R, IL-12RP1 and STAT-inducible firefly luciferase reporter; 10 ng/mL IL-23 (EC90); 5 h at 37° C.; read-out: IL23R Reporter Assay
T1 construct: host or cells: HEK293
T1 sequence (Q5VWK5 24-629): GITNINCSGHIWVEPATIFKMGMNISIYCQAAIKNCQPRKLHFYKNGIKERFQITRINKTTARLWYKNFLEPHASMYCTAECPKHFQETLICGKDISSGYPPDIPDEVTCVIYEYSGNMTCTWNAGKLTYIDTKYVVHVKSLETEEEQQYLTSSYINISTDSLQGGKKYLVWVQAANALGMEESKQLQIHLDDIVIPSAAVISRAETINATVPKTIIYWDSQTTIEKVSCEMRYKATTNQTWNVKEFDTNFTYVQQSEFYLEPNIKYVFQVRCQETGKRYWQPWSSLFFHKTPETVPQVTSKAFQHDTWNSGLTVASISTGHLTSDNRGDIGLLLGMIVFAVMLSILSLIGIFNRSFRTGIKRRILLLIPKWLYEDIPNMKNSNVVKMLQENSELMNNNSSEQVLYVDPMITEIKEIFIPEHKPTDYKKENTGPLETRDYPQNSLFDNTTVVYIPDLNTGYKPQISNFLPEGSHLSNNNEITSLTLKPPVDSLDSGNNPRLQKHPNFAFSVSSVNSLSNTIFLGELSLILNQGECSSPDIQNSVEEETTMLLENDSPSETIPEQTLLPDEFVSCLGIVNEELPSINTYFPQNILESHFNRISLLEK

Row | Structure (SMILES) | EPSA [1] [A^2] | pIC50 (IL-23R)
1 | CC(=O)N[C@H](CCCNC(=N)N)C(=O)N[C@@H]1C(=O)N[C@@H](CC(N)=O)C(=O)N[C@@H]([C@@H](C)O)C(=O)N[C@@H](Cc2c[nH]c3c(C)cccc23)C(=O)N[C@@H](CCCNC(N)=O)C(=O)N[C@H](C(=O)N[C@@H](Cc2ccc(OCCN)cc2)C(=O)N[C@@H](Cc2ccc3ccccc3c2)C(=O)N[C@@](C)(CC(C)C)C(=O)N[C@@H](CCC(=O)O)C(=O)N[C@@H](CC(N)=O)C(=O)N[C@H](CCCCN)C(=O)N(C)[C@H](Cc2ccc(O)cc2)C(N)=O)C(C)(C)SSC1(C)C [compound 16, MeCO-r-Pen(3)-N-T-7MeW-Cit-Pen(3)-AEF-2Nal-aMeL-E-N-k-NMeDTyr-CONH2] (Ac-[dR][Pen]NT[Trp(7-Me)][Cit][Pen][AEF][2Nal][αMeL]EN[dK][dNMeY]-NH2; disulfide 2-7) | 180 | 7.62
2 | CC(=O)NCCCC[C@@H]1NC(=O)[C@H](Cc2c[nH]c3c(C)cccc23)NC(=O)[C@H]([C@@H](C)O)NC(=O)[C@H](CC(N)=O)NC(=O)[C@@H](NC(=O)[C@@H](CCCCNC(=O)CCOCCOCCOCCOCCOCCOCCNC(C)=O)NC(C)=O)C(C)(C)SSC(C)(C)[C@@H](C(=O)N[C@@H](Cc2ccc(OCCN)cc2)C(=O)N[C@@H](Cc2ccc3ccccc3c2)C(=O)NC2(C(=O)N[C@@H](CCCCNC(C)=O)C(=O)N[C@@H](CC(N)=O)C(=O)N[C@@H](Cc3cccnc3)C(=O)N(C)CC(N)=O)CCOCC2)NC1=O [compound 39] (Ac-[dK]([PEG6-Ac])[Pen]NT[Trp(7-Me)]K(Ac)[Pen][AEF][2Nal][Thp]K(Ac)N[3Pal][Sar]-NH2; disulfide 2-7 (inferred)) | 158 | 8.26
3 | CNC(=O)C[C@@H]1NC(=O)[C@@H](NC(C)=O)C(C)(C)SSC(C)(C)[C@@H](C(=O)N[C@@H](Cc2ccc(OCCN)cc2)C(=O)N[C@@H](Cc2ccc3ccccc3c2)C(=O)NC2(C(=O)N[C@@H](CCCCNC(C)=O)C(=O)N[C@@H](CC(N)=O)C(=O)N[C@@H](Cc3cccnc3)C(=O)N(C)CC(N)=O)CCOCC2)NC(=O)[C@H](CCCCNC(C)=O)NC(=O)[C@H](Cc2c[nH]c3c(C)cccc23)NC(=O)[C@H]([C@@H](C)O)NC1=O [compound 46] (Ac-[Pen]D(NHMe)T[Trp(7-Me)]K(Ac)[Pen][AEF][2Nal][Thp]K(Ac)N[3Pal][Sar]-NH2; disulfide 1-6 (inferred)) | 162 | 8.49

The next lines start with the values.

Row | EPSA [1] [A^2] | pIC50 (IL-23R) | Structure (SMILES)
4 | 186 | 7.42 | CC(=O)N[C@H](CCCNC(=N)N)C(=O)N[C@@H]1C(=O)N[C@@H](CC(N)=O)C(=O)N[C@@H]([C@@H](C)O)C(=O)N[C@@H](Cc2c[nH]c3c(C)cccc23)C(=O)N[C@@H](CCCNC(N)=O)C(=O)N[C@H](C(=O)N[C@@H](Cc2ccc(OCCN)cc2)C(=O)N[C@@H](Cc2ccc3ccccc3c2)C(=O)N[C@@](C)(CC(C)C)C(=O)N[C@@H](CCC(=O)O)C(=O)N[C@@H](CC(N)=O)C(=O)N[C@H](Cc2c[nH]cn2)C(=O)N(C)[C@H](Cc2ccc(O)cc2)C(N)=O)C(C)(C)SSC1(C)C [compound 17, MeCO-r-Pen(3)-N-T-7MeW-Cit-Pen(3)-AEF-2Nal-aMeL-E-N-h-NMeDTyr-CONH2] (Ac-[dR][Pen]NT[Trp(7-Me)][Cit][Pen][AEF][2Nal][αMeL]EN[dH][dNMeY]-NH2; disulfide 2-7)
5 | 184 | 8.47 | CC(=O)NCCCC[C@@H]1NC(=O)[C@H](Cc2c[nH]c3c(C)cccc23)NC(=O)[C@H]([C@@H](C)O)NC(=O)[C@H](CC(N)=O)NC(=O)[C@@H](NC(=O)[C@@H](CCCNC(=N)N)NC(C)=O)C(C)(C)SSC(C)(C)[C@@H](C(=O)N[C@@H](Cc2ccc(OCCN)cc2)C(=O)N[C@@H](Cc2ccc3ccccc3c2)C(=O)NC2(C(=O)N[C@@H](CCC(=O)O)C(=O)N[C@@H](CC(N)=O)C(=O)N[C@@H](Cc3cccnc3)C(=O)N(C)[C@H](Cc3ccc(O)cc3)C(N)=O)CCOCC2)NC1=O [compound 35, MeCO-r-Pen(3)-N-T-7MeW-K(Ac)-Pen(3)-AEF-2Nal-THp-E-N-3Pya-NMeDTyr-CONH2] (Ac-[dR][Pen]NT[Trp(7-Me)]K(Ac)[Pen][AEF][2Nal][Thp]EN[3Pal][dNMeY]-NH2; disulfide 2-7)
